The results in this text go back to PubChem BioAssay (NCI).

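Five compound concentrations were applied to cells in 96-well plates for 48 hours; endpoints were derived by simple linear interpolation of the resulting dose-response curve. GI50 = concentration required for 50% inhibition of growth. TGI denotes the concentration required for complete inhibition of growth.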 Some results are limits rather than exact numbers.

Some test systems named below: SF-295 CNS; SF-268 CNS; HCT-116 colon; MDA-MB-231 breast; SNB-75 CNS; MDA-MB-435; NCI/ADR-RES ovarian; HL-60(TB) leukemia; RXF 393 renal; SNB-19 CNS.
What all share (experiment): NCI-60 cell line screen, 48 h

On to `N#Cc1cccc(NC(=O)c2cc(-c3ccc(F)cc3F)ccc2O)c1`, for which the GI50 with SF-295 CNS was 2.16 µM; in the assay with SF-268 CNS it was 3.11 µM; in the assay on HCT-116 colon, 2.57 µM; with MDA-MB-231 breast it was 2.01 µM; with SNB-75 CNS, 2.08 µM; with MDA-MB-435 it was 2.38 µM. Further, the GI50 in the assay on NCI/ADR-RES ovarian is 2.19 µM; in the assay on HL-60(TB) leukemia it was 2.17 µM; with RXF 393 renal, 2.69 µM; in the assay with SNB-19 CNS, 2.63 µM. In addition, the TGI is 5.19 µM in the assay on SF-295 CNS; over 100 µM in the assay on SF-268 CNS; 10.6 µM with HCT-116 colon; 5.23 µM in the assay with MDA-MB-231 breast; 8.05 µM in the assay on SNB-75 CNS; 9.32 µM in the assay on MDA-MB-435. The TGI in the assay on NCI/ADR-RES ovarian was 6.84 µM; in the assay on HL-60(TB) leukemia, 5.6 µM; with RXF 393 renal, 7.63 µM; in the assay with SNB-19 CNS it was 18.4 µM.

Take `C/C(=N\Nc1ccc(Cl)cn1)c1ccccn1`: the GI50 with SF-295 CNS is 0.262 µM; in the assay on SF-268 CNS, 0.213 µM; in the assay with HCT-116 colon it was 0.0201 µM; in the assay on MDA-MB-231 breast, 0.0652 µM; in the assay with SNB-75 CNS, 0.208 µM; with MDA-MB-435 it was 0.382 µM. The GI50 with NCI/ADR-RES ovarian was 0.037 µM; with HL-60(TB) leukemia, 0.0359 µM; in the assay on RXF 393 renal, 0.188 µM; with SNB-19 CNS, 0.411 µM. The TGI was 5.18 µM with SF-295 CNS; over 73.2 µM in the assay on SF-268 CNS; over 33.8 µM in the assay on HCT-116 colon; over 100 µM in the assay with MDA-MB-231 breast; over 76.2 µM in the assay with SNB-75 CNS; over 100 µM with MDA-MB-435. Also, the TGI in the assay on NCI/ADR-RES ovarian is over 31.6 µM; in the assay with HL-60(TB) leukemia, 1.08 µM; with RXF 393 renal, 24.9 µM; with SNB-19 CNS it was over 100 µM.

With `Cc1ccc(C(=O)Nc2ccc(CN3CCN(C)CC3)c(C(F)(F)F)c2)cc1C#Cc1cnc(N)c2ccccc12`, the GI50 in the assay with SF-295 CNS is 0.785 µM; with SF-268 CNS it was 0.403 µM; in the assay on HCT-116 colon, 0.336 µM; with MDA-MB-231 breast, 0.519 µM; with SNB-75 CNS, 0.726 µM; in the assay with MDA-MB-435, 0.214 µM. The GI50 in the assay on NCI/ADR-RES ovarian was 0.594 µM; in the assay with HL-60(TB) leukemia, 0.491 µM; in the assay with RXF 393 renal, 0.285 µM; in the assay with SNB-19 CNS, 0.769 µM. Also, the TGI stood at 1.69 µM in the assay on SF-295 CNS; 1.26 µM in the assay on SF-268 CNS; 1.01 µM with HCT-116 colon; 1.22 µM with MDA-MB-231 breast; 1.52 µM in the assay on SNB-75 CNS; 0.835 µM with MDA-MB-435. The TGI in the assay with NCI/ADR-RES ovarian was found to be 1.82 µM; in the assay with HL-60(TB) leukemia, 2.41 µM; with RXF 393 renal it was 1.06 µM; with SNB-19 CNS, 1.47 µM.

As for `Nc1ncn(C2CC(O)C(CO)O2)c(=O)n1` (stereo not drawn), the TGI in the assay on SF-295 CNS was 247 µM; with SF-268 CNS, over 375 µM; in the assay with HCT-116 colon, over 375 µM; with MDA-MB-231 breast it was over 343 µM; with SNB-75 CNS it was over 288 µM; in the assay on MDA-MB-435 it was over 98.3 µM. Besides, the TGI was over 375 µM in the assay with NCI/ADR-RES ovarian, 103 µM in the assay with HL-60(TB) leukemia, 350 µM in the assay on RXF 393 renal and over 349 µM in the assay with SNB-19 CNS.

Turning to `c1cc2c(ncc3cscc32)s1`, the TGI is over 100 µM with SF-295 CNS; over 100 µM with SF-268 CNS; over 31.6 µM in the assay with HCT-116 colon; over 100 µM in the assay with MDA-MB-231 breast; over 100 µM in the assay on SNB-75 CNS; over 100 µM in the assay with MDA-MB-435. In addition, the TGI with NCI/ADR-RES ovarian, in the assay on HL-60(TB) leukemia, in the assay on RXF 393 renal and with SNB-19 CNS was over 100 µM throughout.

Regarding `Cc1nc(-c2ccccc2)c(-c2ccccc2)s1`, the TGI in the assay on SF-295 CNS is over 100 µM; in the assay with SF-268 CNS it was 78.6 µM; with HCT-116 colon, 68.8 µM; in the assay with MDA-MB-231 breast, 69.6 µM; in the assay with SNB-75 CNS it was over 100 µM; with MDA-MB-435 it was 69.1 µM. The TGI is 65.4 µM with NCI/ADR-RES ovarian, 28.5 µM in the assay on HL-60(TB) leukemia, 49.8 µM in the assay on RXF 393 renal and over 100 µM with SNB-19 CNS.

Take `CC[CH2][Sn]([Cl])([Cl])[CH2]CC.Oc1ccccc1C=NCCN=Cc1ccccc1O`: the GI50 in the assay with SF-295 CNS is 14.7 µM; in the assay on SF-268 CNS, 3.63 µM; in the assay with HCT-116 colon, 4.89 µM; in the assay with MDA-MB-231 breast it was 3.96 µM; in the assay on SNB-75 CNS, 3.34 µM; with MDA-MB-435, 7.3 µM. The GI50 is 16 µM in the assay with NCI/ADR-RES ovarian, 2.41 µM with RXF 393 renal and 12.1 µM in the assay with SNB-19 CNS. In addition, the TGI came to 32.7 µM in the assay on SF-295 CNS; 15.5 µM in the assay on SF-268 CNS; 16.3 µM in the assay with HCT-116 colon; 15.8 µM in the assay on MDA-MB-231 breast; 16.1 µM in the assay on SNB-75 CNS; 24.7 µM in the assay with MDA-MB-435. Moreover, the values for the TGI in the assay with NCI/ADR-RES ovarian, with RXF 393 renal and with SNB-19 CNS were 37.8 µM, 8.11 µM and 25 µM, respectively.

`Cn1cnc([N+](=O)[O-])c1[Se]c1nc(N)nc2c1ncn2C1OC(CO)C(O)C1O` (stereo not drawn): the TGI with SF-295 CNS, in the assay with SF-268 CNS, in the assay with HCT-116 colon, in the assay with MDA-MB-231 breast, in the assay on SNB-75 CNS and in the assay on MDA-MB-435 was over 100 µM each time. Besides, the TGI in the assay with NCI/ADR-RES ovarian, in the assay on HL-60(TB) leukemia, in the assay on RXF 393 renal and in the assay on SNB-19 CNS was over 100 µM throughout.

As to `CS(=O)(=O)c1cc(=O)c2ccccc2s1`, the TGI in the assay on SF-295 CNS is 24.8 µM; in the assay on SF-268 CNS it was 32.1 µM; in the assay on HCT-116 colon, 4.05 µM; with MDA-MB-231 breast, 31.4 µM; in the assay on SNB-75 CNS it was 31 µM; with MDA-MB-435, 24.8 µM. Further, the TGI in the assay with NCI/ADR-RES ovarian was 38.8 µM; in the assay with HL-60(TB) leukemia, 6.45 µM; in the assay with RXF 393 renal it was 9.05 µM; with SNB-19 CNS, 36.5 µM.
